Values of other authors as cited in US20120016124A1, “SEROTONIN REUPTAKE INHIBITORS” (Baylor University, priority 2007, published 2012).
Like-named read-outs stand apart in the source and are kept apart here.

What was measured:
5-HT2A = 5-HT2A (Homo sapiens, UniProt P28223); conditions: cited from earlier work
SERT = SERT (Homo sapiens, UniProt P31645); conditions: reference compounds, Orjales, cited from earlier work

Measured: Ki

Chain of SERT (P31645 whole entry, species assumed): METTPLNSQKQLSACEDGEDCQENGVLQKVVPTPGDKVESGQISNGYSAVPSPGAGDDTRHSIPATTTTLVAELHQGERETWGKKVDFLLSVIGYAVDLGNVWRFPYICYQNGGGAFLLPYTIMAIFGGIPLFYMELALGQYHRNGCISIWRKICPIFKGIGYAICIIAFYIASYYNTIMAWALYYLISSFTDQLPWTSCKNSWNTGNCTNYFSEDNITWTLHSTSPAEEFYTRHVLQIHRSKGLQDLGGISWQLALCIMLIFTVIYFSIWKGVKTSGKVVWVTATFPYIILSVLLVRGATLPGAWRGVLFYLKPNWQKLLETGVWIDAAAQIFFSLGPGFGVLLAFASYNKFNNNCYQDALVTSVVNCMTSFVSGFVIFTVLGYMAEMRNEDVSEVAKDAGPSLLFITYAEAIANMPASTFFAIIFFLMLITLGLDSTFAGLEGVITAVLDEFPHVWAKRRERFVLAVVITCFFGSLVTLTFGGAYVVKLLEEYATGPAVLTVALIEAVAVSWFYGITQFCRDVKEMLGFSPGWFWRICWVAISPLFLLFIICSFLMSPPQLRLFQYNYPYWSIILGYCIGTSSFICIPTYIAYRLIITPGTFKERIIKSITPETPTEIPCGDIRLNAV
Chain of 5-HT2A (P28223 whole entry, species assumed): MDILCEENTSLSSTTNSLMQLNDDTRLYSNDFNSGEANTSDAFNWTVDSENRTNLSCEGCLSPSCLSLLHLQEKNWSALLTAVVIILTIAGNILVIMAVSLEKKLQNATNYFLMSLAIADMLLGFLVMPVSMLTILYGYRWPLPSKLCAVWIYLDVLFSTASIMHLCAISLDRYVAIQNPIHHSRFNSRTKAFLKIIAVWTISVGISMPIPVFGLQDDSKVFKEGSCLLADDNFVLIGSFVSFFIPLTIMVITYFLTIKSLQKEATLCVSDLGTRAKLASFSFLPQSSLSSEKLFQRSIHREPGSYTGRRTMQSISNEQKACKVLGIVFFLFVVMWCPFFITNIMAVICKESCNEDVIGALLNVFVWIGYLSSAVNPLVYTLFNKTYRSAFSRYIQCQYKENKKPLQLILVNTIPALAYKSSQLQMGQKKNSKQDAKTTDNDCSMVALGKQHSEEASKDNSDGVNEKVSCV

CCCN(CCC)C1CCc2cccc(O)c2C1 (stereo not shown) [Compound 8-OH-DPAT]
> 1000 nM: 5-HT2A | SERT; Table 5, et al. 2003 | SERT; Table 7, et. al., 2003 | SERT; Table 8, et. al., 2003
